Results: patent US10647692B2, “Heterocycle-substituted bicyclic azole pesticides” (FMC Corporation, priority 2015, dated 2020)

Legend:
Assay type in all cases: in vivo
[1] = test system: green peach aphid (Myzus persicae (Sulzer)); assay: Test A: control of green peach aphid, foliar spray on pre-infested radish plant; settings: 144 h, assessed after 6 days; for mortality at 50 ppm: sprayed at 50 ppm; for mortality at 250 ppm: sprayed at 250 ppm
Procedure: (§1) Test compounds were formulated using a solution containing 10% acetone, 90% water and 300 ppm X-77® Spreader Lo-Foam Formula non-ionic surfactant containing alkylarylpolyoxyethylene, free fatty acids, glycols and isopropanol (Loveland Industries, Inc. Greeley, Colo., USA). The formulated compounds were applied in 1 mL of liquid through a SUJ2 atomizer nozzle with ⅛ JJ custom body (Spraying Systems Co. Wheaton, Ill., USA) positioned 1.27 cm (0.5 inches) above the top of each test unit. Test compounds were sprayed at the rates indicated, and each test was replicated three times.
For evaluating control of green peach aphid (Myzus persicae (Sulzer)) through contact and/or systemic means, the test unit consisted of a small open container with a 12-15-day-old radish plant inside. This was pre-infested by placing on a leaf of the test plant 30-40 aphids on a piece of leaf excised from a culture plant (cut-leaf method). The aphids moved onto the test plant as the leaf piece desiccated. After pre-infestation, the soil of the test unit was covered with a layer of sand.
Test compounds were formulated and sprayed at 250 and/or 50 ppm. After spraying of the formulated test compound, each test unit was allowed to dry for 1 hour and then a black, screened cap was placed on top. The test units were held for 6 days in a growth chamber at 19-21° C. and 50-70% relative humidity. Each test unit was then visually assessed for insect mortality.

[2] = test system: cotton melon aphid (Aphis gossypii (Glover)); assay: Test B: control of cotton melon aphid, foliar spray on pre-infested cotton plant; settings: 144 h, assessed after 6 days; for mortality at 50 ppm: sprayed at 50 ppm; for mortality at 250 ppm: sprayed at 250 ppm
Procedure: as §1
For evaluating control of cotton melon aphid (Aphis gossypii (Glover)) through contact and/or systemic means, the test unit consisted of a small open container with a 6-7-day-old cotton plant inside. This was pre-infested with 30-40 insects on a piece of leaf according to the cut-leaf method, and the soil of the test unit was covered with a layer of sand.
Test compounds were formulated and sprayed at 250 and/or 50 ppm. After spraying, the test units were maintained in a growth chamber for 6 days at 19° C. and 70% relative humidity. Each test unit was then visually assessed for insect mortality.

[3] = test system: Western Flower Thrips (Frankliniella occidentalis); assay: Test D: control of Western Flower Thrips, sprayed Soleil bean plant; settings: held for 7 days
Procedure: as §1
For evaluating control of Western Flower Thrips (Frankliniella occidentalis) through contact and/or systemic means, the test unit consisted of a small open container with a 5-7-day-old Soleil bean plant inside.
Test compounds were formulated and sprayed at 250 and/or 50 ppm. After spraying, the test units were allowed to dry for 1 hour, and then 22-27 adult thrips were added to the unit. A black, screened cap was placed on the top of each test unit, and the test units were held for 7 days at 25° C. and 45-55% relative humidity.

[4] = test system: sweetpotato whitefly (Bemisia tabaci (Gennadius)); assay: Test E: control of sweetpotato whitefly, sprayed cotton plant infested with eggs; settings: 312 h, assessed after 13 days; for mortality at 250 ppm: sprayed at 250 ppm
Procedure: as §1
For evaluating control of the sweetpotato whitefly (Bemisia tabaci (Gennadius)) through contact and/or systemic means, the test unit consisted of a small open container with a 12-14-day-old cotton plant inside. Prior to the spray application, both cotyledons were removed from the plant, leaving one true leaf for the assay. Adult whiteflies were allowed to lay eggs on the plant and then were removed from the test unit. Cotton plants infested with at least 15 eggs were submitted to the test for spraying.
Test compounds were formulated and sprayed at 250 and/or 50 ppm. After spraying, the test units were allowed to dry for 1 hour. The cylinders were then removed, and the units were taken to a growth chamber and held for 13 days at 28° C. and 50-70% relative humidity. Each test unit was then visually assessed for insect mortality.

[5] = test system: potato leafhopper (Empoasca fabae); assay: Test C: control of potato leafhopper, sprayed Soleil bean plant, post-infested; settings: assessed after 6 days
Procedure: as §1
For evaluating control of potato leafhopper (Empoasca fabae) through contact and/or systemic means, the test unit consisted of a small open container with a 5-6-day-old Soleil bean plant (primary leaves emerged) inside. White sand was added to the top of the soil and one of the primary leaves was excised prior to application.
Test compounds were formulated and sprayed at 250 ppm and/or 50 ppm. After spraying, the test units were allowed to dry for 1 h before they were post-infested with 5 potato leafhoppers (18-21-day-old adults). A black, screened cap was placed on the top of each test unit, and the test units were held for 6 days in a growth chamber at 24° C. and 70% relative humidity. Each test unit was then visually assessed for insect mortality.

Structure (SMILES): c1cnc(Oc2ccc3nn(-c4cccnc4)cc3c2)nc1 [Compound 42, 2-(3-pyridinyl)-5-(2-pyrimidinyloxy)-2H-indazole]
- mortality at 50 ppm [1]: ≥ 80%
- mortality at 250 ppm [1]: ≥ 80%
- mortality at 50 ppm [2]: ≥ 80%
- mortality at 250 ppm [2]: ≥ 80%

Structure (SMILES): COCNCCC(=O)c1ccc2nn(-c3cccnc3)cc2c1 [Compound 32, 3-(methoxymethylamino)-1-[2-(3-pyridinyl)-2H-indazol-5-yl]-1-propanone]
- mortality at 50 ppm [1]: ≥ 80%
- mortality at 250 ppm [1]: ≥ 80%
- mortality at 250 ppm [2]: ≥ 80%
- control efficacy (plant damage and/or mortality) ([3]; sprayed at 250 ppm): 40% or less plant damage and/or 100% mortality

Structure (SMILES): CC(C(=O)NC(C)(C)C#N)c1ccc2nn(-c3cccnc3)cc2c1 (stereo not drawn) [Compound 85, N-(1-cyano-1-methylethyl)-α-methyl-2-(3-pyridinyl)-2H-indazole-5-acetamide]
- mortality at 50 ppm [1]: ≥ 80%
- mortality at 250 ppm [1]: ≥ 80%
- mortality at 50 ppm [2]: ≥ 80%
- mortality at 250 ppm [2]: ≥ 80%
- mortality at 250 ppm [4]: ≥ 50%

Structure (SMILES): CC(C(=O)NCc1ncccn1)c1ccc2nn(-c3cccnc3)cc2c1 (stereo not drawn) [Compound 59, α-methyl-2-(3-pyridinyl)-N-(2-pyrimidinylmethyl)-2H-indazole-5-acetamide]
- mortality at 50 ppm [1]: ≥ 80%
- mortality at 250 ppm [1]: ≥ 80%
- mortality at 50 ppm [2]: ≥ 80%
- mortality at 250 ppm [2]: ≥ 80%
- mortality at 250 ppm [4]: ≥ 50%

Structure (SMILES): FC(F)(F)c1ccc(Oc2ccc3nn(-c4cccnc4)cc3c2)cc1 [Compound 35]
- control efficacy (plant damage and/or mortality) ([3]; sprayed at 250 ppm): 40% or less plant damage and/or 100% mortality

Structure (SMILES): CC(C)COc1ccc2nn(-c3cccnc3)cc2c1 [Compound 54, 5-(2-methylpropoxy)-2-(3-pyridinyl)-2H-indazole]
- mortality at 50 ppm [1]: ≥ 80%
- mortality at 250 ppm [1]: ≥ 80%
- mortality at 50 ppm [2]: ≥ 80%
- mortality at 250 ppm [2]: ≥ 80%
- mortality at 50 ppm ([4]; sprayed at 50 ppm): ≥ 50%
- mortality at 250 ppm [4]: ≥ 50%

Structure (SMILES): O=C(Cc1ccc2nn(-c3cccnc3)cc2c1)NCC(F)(F)F [Compound 41]
- control efficacy (plant damage and/or mortality) ([3]; sprayed at 250 ppm): 40% or less plant damage and/or 100% mortality

Structure (SMILES): CC(C)NC(=O)Cc1ccc2nn(-c3cccnc3)cc2c1 [Compound 38, N-(1-methylethyl)-2-(3-pyridinyl)-2H-indazole-5-acetamide]
- mortality at 50 ppm [1]: ≥ 80%
- mortality at 250 ppm [1]: ≥ 80%
- mortality at 50 ppm [2]: ≥ 80%
- mortality at 250 ppm [2]: ≥ 80%
- control efficacy (plant damage and/or mortality) ([3]; sprayed at 250 ppm): 40% or less plant damage and/or 100% mortality

Structure (SMILES): CC(C)NC(=O)Cc1ccc2nn(-c3cncc(F)c3)cc2c1 [Compound 56]
- control efficacy (mortality) ([5]; sprayed at 50 ppm): ≥ 80%
- control efficacy (mortality) ([5]; sprayed at 250 ppm): ≥ 80%

Structure (SMILES): CSCCC(=O)c1ccc2nn(-c3cccnc3)cc2c1 [Compound 31]
- control efficacy (plant damage and/or mortality) ([3]; sprayed at 50 ppm): 40% or less plant damage and/or 100% mortality

Structure (SMILES): O=C(NCC(F)(F)F)C(=O)c1ccc2nn(-c3cccnc3)cc2c1 [Compound 48, α-oxo-2-(3-pyridinyl)-N-(2,2,2-trifluoroethyl)-2H-indazole-5-acetamide]
- mortality at 50 ppm [1]: ≥ 80%
- mortality at 250 ppm [1]: ≥ 80%
- mortality at 250 ppm [2]: ≥ 80%

Structure (SMILES): CSCCC(=O)c1cccc2nn(-c3cccnc3)cc12 [Compound 2, 3-(methylthio)-1-[2-(3-pyridinyl)-2H-indazol-4-yl]-1-propanone]
- mortality at 50 ppm [1]: ≥ 80%
- mortality at 50 ppm [2]: ≥ 80%
- control efficacy (plant damage and/or mortality) ([3]; sprayed at 50 ppm): 40% or less plant damage and/or 100% mortality
